Columns and labels:
DA (TH^+) neurons [1] = assay: MPP^+ intoxication model, DA cell survival in midbrain cultures; type: cell-based, Wistar rat
Procedure: (§1) Animals were treated in accordance with the Guide for the Care and Use of Laboratory Animals (National Research Council, 1996), European Directive 86/609, and the guidelines of the local institutional animal care and use committee. Cultures were prepared from the ventral mesencephalon of gestational age 15.5 Wistar rat embryos (Janvier Breeding Center, Le Genest St Isle, France). Dissociated cells in suspension obtained by mechanical trituration of midbrain tissue pieces were seeded at a density of 1.2-1.5 10^5 cells/cm^2 onto tissue culture supports precoated with 1 mg/mL polyethylenimine diluted in borate buffer pH 8.3 as described (Michel et al., 1997. J Neurochem. 69(4):1499-507). […] They were fed daily by replacing 70% of the medium. Routinely, mesencephalic cultures were established on Nunc 24-well culture plates (Thermofischer Scientific, Rochester, N.Y.). Note that these cultures contain tyrosine hydroxylase (TH)^+ neurons that were exclusively dopaminergic (Traver et al., 2006. Mol Pharmacol. 70(1):30-40). TH^+ neurons represented approximately 1-2% of the total number of neuronal cells present in these cultures. The evaluation of the survival of DA neurons was performed by counting cells immunopositive for TH as described (Toulorge et al., 2011. Faseb J. 25(8):2563-73).
Treatments with MPP^+ were performed in cultures where the spontaneous death process was prevented by long-term exposure to depolarizing concentrations of K^+ (30 mM), in the presence of the glutamate receptor antagonist MK801 (5 μM) to prevent unwanted excitotoxic insults as described previously (Douhou et al., 2001. J Neurochem. 78(1):163-74). Treatments with MPP^+ and potential neuroprotective molecules were carried out between 5 and 7 DIV. The number of microglial cells was evaluated in this same model since MPP^+ is known to induce microglial proliferation (Henze et al., 2005. J Neurochem. 95(4):1069-77).
The cultures were fixed for 12 min using 4% formaldehyde in Dulbecco's phosphate-buffered saline (PBS), then washed twice with PBS before an incubation step at 4° C. for 24 h with the following antibodies. A monoclonal anti-TH antibody diluted 1/5000 (ImmunoStar, Inc., Hudson, Wis.) or a polyclonal anti-TH antibody diluted 1/1000 (US Biologicals, Salem, Mass.) was used to assess the survival of DA neurons. A monoclonal anti-MAP2 antibody diluted at 1/250 (clone AP20, Sigma-Aldrich) was used to assess the survival of cortical neurons. Microglial cells were characterized using a mouse anti-Ibal antibody (1/50; clone MRC OX-42; Pharmingen, BD Biosciences, Le Pont-de-Claix, France). All antibodies were diluted in PBS containing 0.2% Triton X-100, except the mouse anti-Ibal which was diluted in PBS only. Detection of the primary antibodies was performed with an Alexa Fluor-488 conjugate of an anti-mouse IgG antibody or with an Alexa Fluor-555 conjugate of an anti-rabbit antibody (1:500).

interleukin-10 (IL-10) = conditions: in vivo; cited from earlier work
dopaminergic neurons = assay: Prevention of dopaminergic neurons cell death (summary statement); type: cell-based
DA (TH^+) neurons [2] = assay: GDNF withdrawal model in midbrain cultures; conditions: GDNF 20 ng/mL for 10 DIV, deprived 11-15 DIV; NAD^+ 3 mM, antibodies 1 μg/mL
Excerpt: They were fed daily by replacing 70% of the medium. Routinely, mesencephalic cultures were established on Nunc 24-well culture plates (Thermofischer Scientific, Rochester, N.Y.). […] TH^+ neurons represented approximately 1-2% of the total number of neuronal cells present in these cultures.
To evaluate the efficacy of our compounds in a more mature population of DA neurons, we also used a variation of the previous model system. More precisely, spontaneous DA cell death was prevented up to 10 DIV by a chronic treatment with GDNF (20 ng/mL) to favor the maturation of healthy DA neurons. Then, DA cell death was triggered by total withdrawal of GDNF for the next 5 days.
The cultures were fixed for 12 min using 4% formaldehyde in Dulbecco's phosphate-buffered saline (PBS), then washed twice with PBS before an incubation step at 4° C. for 24 h with the following antibodies. A monoclonal anti-TH antibody diluted 1/5000 (ImmunoStar, Inc., Hudson, Wis.) or a polyclonal anti-TH antibody diluted 1/1000 (US Biologicals, Salem, Mass.) was used to assess the survival of DA neurons. […] All antibodies were diluted in PBS containing 0.2% Triton X-100, except the mouse anti-Ibal which was diluted in PBS only.

cortical neurons [3] = assay: Measurement of glucose uptake in cortical neurons (2-NBDG); type: cell-based, Wistar rat; conditions: acute treatment 30 min, 7 DIV; HB7 1 μg/mL, NAD^+ 3 mM, insulin 100 nM
Procedure: In brief, cultures grown for 7 days were incubated with 2-NBDG (300 μM) for 30 min at 37° C. in the presence of test compounds in glucose-free N5 medium, washed twice to remove excess indicator, and then left to recover for 30 min before assessment. The fluorescent signal (excitation, 465 nm; emission, 540 nm) was acquired using an Arrayscan (ThermoFischer Scientific) and quantified using ImageJ. The average pixel intensity over the surface of each cell body was determined under the different experimental conditions. Background fluorescence was subtracted from raw data, and the results were expressed as a percentage of mean fluorescence intensity per cell under control conditions. 100 cells were analysed under each test condition.

[4] = test system: midbrain DA (TH^+) neurons; assay: Spontaneous and progressive dopaminergic (DA) cell death in midbrain cultures; type: cell-based, Wistar rat; conditions: NAD^+ 3 mM, antibodies 1 μg/mL
Procedure: as §1
We used a model system in which DA cell loss was spontaneous. […]

cortical neurons [5] = assay: Oxidative stress model (H2O2) in cortical cultures; type: cell-based, Wistar rat; conditions: H2O2 75 μM between 12 and 14 DIV; NAD^+ 3 mM, antibodies 1 μg/mL
Procedure: (§2) Animals were treated in accordance with the Guide for the Care and Use of Laboratory Animals (National Research Council, 1996), European Directive 86/609, and the guidelines of the local institutional animal care and use committee. Cultures were prepared from the cortex of gestational age 15.5 Wistar rat embryos (Janvier Breeding Center, Le Genest St Isle, France). Dissociated cells in suspension obtained by mechanical trituration of cortical tissue pieces were seeded onto tissue culture supports precoated with 1 mg/mL polyethylenimine diluted in borate buffer pH 8.3 according to the protocol previously described for mesencephalic cultures. […] They were fed daily by replacing 70% of the medium. Routinely, cortical cultures were established on Nunc 24-well culture plates (Thermofischer Scientific, Rochester, N.Y.).
H2O2 (75 μM) was added to cortical cultures between 12 and 14 DIV in the presence or the absence of potential neuroprotective molecules. The cultures were then fixed in formaldehyde and immunostained using anti-MAP-2 antibody. The area occupied by MAP-2′ neurons was assessed using ImageJ.
(§3) The cultures were fixed for 12 min using 4% formaldehyde in Dulbecco's phosphate-buffered saline (PBS), then washed twice with PBS before an incubation step at 4° C. for 24 h with the following antibodies. […]

cortical neurons [6] = assay: Excitotoxicity model (glutamate) in cortical cultures; type: cell-based, Wistar rat; conditions: glutamate 75 μM between 12 and 14 DIV; NAD^+ 3 mM, antibodies 1 μg/mL
Procedure: as §2
Glutamate (75 μM) was added to cortical cultures between 12 and 14 DIV in the presence or the absence of potential neuroprotective treatments. The cultures were then fixed in formaldehyde and immunostained using anti-MAP-2 antibody. The area occupied by MAP-2^+ neurons was assessed using ImageJ.
as §3

[7] = in humans; cited from earlier work

Q: What does the source list for NC(=O)c1ccc[n+]([C@@H]2O[C@H](COP(=O)(O)OP(=O)([O-])OC[C@H]3O[C@@H](n4cnc5c(N)ncnc54)[C@H](O)[C@@H]3O)[C@@H](O)[C@@H]2F)c1 [ARA-F-NAD, ara-2′-deoxy-2′-fluoro-nicotinamide adenine dinucleotide]?
A: MPP^+-induced DA cell loss (DA (TH^+) neurons [1]; ARA-F-NAD 200 μM during the intoxication period, MPP^+ 3 μM): almost totally prevented; neuroprotective effect in the presence of Ned-19 (DA (TH^+) neurons [1]; ARA-F-NAD 200 μM, Ned-19 2 μM): abolished

Q: With isatuximab: anti-CD38 antibody as the molecule, how does the “plasma levels of anti-inflammatory interleukin-10 (IL-10)” value (interleukin-10 (IL-10)) read?
A: decrease

Q: For “daratumumab: anti-CD38 antibody approved for the treatment of multiple myeloma”, which “plasma levels of anti-inflammatory interleukin-10 (IL-10)” value (interleukin-10 (IL-10)) is on record?
A: decrease

Q: What does the source list for NC(=O)c1ccc[n+]([C@@H]2O[C@H](COP(=O)([O-])OP(=O)(O)OC[C@H]3O[C@@H](n4cnc5c(N)ncnc54)[C@H](O)[C@@H]3O)[C@@H](O)[C@H]2O)c1 [NAD^+, nicotinamide adenine dinucleotide]?
A: concentration at which the neuroprotective effect was exerted (dopaminergic neurons): 3 mM; TH^+ neurons saved from death after GDNF deprivation (DA (TH^+) neurons [2]): saved from death; glucose uptake (cortical neurons [3]): only modestly increased glucose uptake; number of midbrain DA (TH^+) neurons ([4]; 10 DIV cultures chronically exposed): increased the number of midbrain DA (TH^+) neurons; neuroprotective effect in the presence of Ned-19 ([4]; Ned-19 2 μM): slightly but significantly; neuroprotective effect in the presence of Ex-527 (DA (TH^+) neurons [1]; Ex-527 100 μM, HB7 1 μg/mL, NAD^+ 3 mM, MPP^+ model): only antagonized; MPP^+-induced DA cell loss (DA (TH^+) neurons [1]; MPP^+ 3 μM between 5 and 7 DIV, NAD^+ 3 mM, antibodies 1 μg/mL): either partially or almost totally prevented; neuroprotective effect in the presence of dantrolene (DA (TH^+) neurons [1]; dantrolene 30 μM (FIG. 9), HB7 1 μg/mL, NAD^+ 3 mM, cADPR 200 μM, MPP^+ model): only antagonized; protection from oxidative stress (cortical neurons [5]): protected from oxidative stress; protection from excitotoxicity (cortical neurons [6]): protected from excitotoxicity

B1: ABBV-8E12: intravenously injected monoclonal antibody cited for its brain/plasma ratio in humans (antibody, chains of the INN, looked up, V domains shown)
VH: EVKVVESGGGLVQPGGSMKLSCVVSGFTFSNYWVNWVRQAPGKGLEWVAQIRLKSDNYATHYEESVKGRFTISRDDSKSSVYLQMNNLRAEDSGIYYCTNWEDYWGQGTTVTVSS
VL: DIVLTQSPDSLAVSLGERATISCRASQSVSTSRYSYIHWYQQKPGQPPKLLIKYASNLESGVPSRFSGSGSGTDFTLNIHPLEPEDFATYYCHHSWEIPLTFGQGTKLEIK
Q: Which Brain/plasma ratio [7] does the source give for B1 here?
A: 0.385%
